Data from patent US10023557B2 (LifeSci Pharmaceuticals, Inc., priority 2015, dated 2018).

Target: human plasma kallikrein (Homo sapiens (Human), UniProt P03952)
Assay: In vitro enzyme inhibition of human plasma kallikrein (PFR-AMC cleavage)
Format: biochemical
Details: Pro-Phe-Arg-AMC substrate, 37° C., read-out: hPK IC50
Procedure: The ability of the compounds disclosed herein to inhibit human plasma kallikrein activity was quantified according to the procedures below.
A 10 mM solution of the test compound was made in DMSO. […] A control tube containing only DMSO is included. 16 μL of each compound test solution was combined with 384 μL of assay buffer (50 mM Tris-HCl pH 7.5, 150 mM NaCl, 0.01% Triton X-100) to yield a “4× test compound buffer stock”.
These solutions are hereby referred to as 4× hPK and 2×PFR-AMC, respectively.
50 μL was removed from this mixture and placed into duplicate wells on a Microfluor 1Black U-bottom microtiter plate (Thermo Scientific). This plate was incubated for 5 minutes at 37° C. To each well, 50 μL of pre-warmed 2×PFR-AMC was added to start the enzymatic reaction. Cleavage of PFR-AMC was monitored in a Biotek Synergy H4 reader set at 37° C. Readings are taken every 43 seconds for 1 hour. […] The IC50 is calculated using the Gen5 (Biotek Instruments).
The ability of the compounds in Table 3 to inhibit human plasma kallikrein activity was determined.

Chain of human plasma kallikrein (P03952 391-638): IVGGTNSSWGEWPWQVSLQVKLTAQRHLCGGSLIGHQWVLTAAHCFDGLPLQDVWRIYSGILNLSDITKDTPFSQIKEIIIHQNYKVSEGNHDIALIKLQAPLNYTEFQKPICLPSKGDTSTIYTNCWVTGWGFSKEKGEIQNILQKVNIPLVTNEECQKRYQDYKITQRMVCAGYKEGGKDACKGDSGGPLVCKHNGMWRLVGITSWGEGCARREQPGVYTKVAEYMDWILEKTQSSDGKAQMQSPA
Chain of human plasma kallikrein (P03952 20-390 partner): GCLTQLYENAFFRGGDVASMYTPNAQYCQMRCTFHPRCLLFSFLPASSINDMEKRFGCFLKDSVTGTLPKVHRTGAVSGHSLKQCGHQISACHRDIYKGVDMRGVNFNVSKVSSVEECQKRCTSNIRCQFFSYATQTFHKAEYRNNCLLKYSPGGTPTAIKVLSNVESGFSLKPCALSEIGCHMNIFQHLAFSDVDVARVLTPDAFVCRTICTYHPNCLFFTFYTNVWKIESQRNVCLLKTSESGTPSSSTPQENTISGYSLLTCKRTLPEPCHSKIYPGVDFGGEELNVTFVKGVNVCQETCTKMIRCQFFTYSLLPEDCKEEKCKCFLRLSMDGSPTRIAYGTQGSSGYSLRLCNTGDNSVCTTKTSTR

Row | IC50 | Structure (SMILES)
1 | < 100 nM | Cc1cc(N)nc(C)c1CNC(=O)c1ccnc(Cc2cc3cc(Cl)ccc3[nH]2)c1 [Example 147, N-((6-amino-2,4-dimethylpyridin-3-yl)methyl)-2-((5-chloro-1H-indol-2-yl)methyl)isonicotinamide]
2 | 100 to 1000 nM | Cc1cc(N)nc(C)c1CNC(=O)c1ccnc(Cc2cc3cc(C(F)(F)F)ccc3[nH]2)c1 [Example 151, N-((6-amino-2,4-dimethylpyridin-3-yl)methyl)-2-((5-(trifluoromethyl)-1H-indol-2-yl)methyl)isonicotinamide]
3 | 100 to 1000 nM | Cc1ccn2c(C)nc(CNC(=O)c3ccnc(Cc4ccc5ncc(C(F)(F)F)cc5c4)c3)c2c1 [Example 159, N-((3,7-dimethylimidazo[1,5-a]pyridin-1-yl)methyl)-2-((3-(trifluoromethyl)quinolin-6-yl)methyl)isonicotinamide]
4 | 100 to 1000 nM | Cc1nc2c(cc1CNC(=O)c1ccnc(Cc3ccc4ncc(Cl)cc4c3)c1)CCN2 [Example 161, 2-((3-chloroquinolin-6-yl)methyl)-N-((6-methyl-2,3-dihydro-1H-pyrrolo[2,3-b]pyridin-5-yl)methyl)isonicotinamide]
5 | > 10000 nM | Cc1nc2c(cc1CNC(=O)c1ccnc(Cc3ccc4ncc(C(F)(F)F)cc4c3)c1)CNC2 [Example 164, N-((2-methyl-6,7-dihydro-5H-pyrrolo[3,4-b]pyridin-3-yl)methyl)-2-((3-(trifluoromethyl)quinolin-6-yl)methyl)isonicotinamide]
6 | > 10000 nM | COc1cc(N)nc(C)c1CNC(=O)c1ccnc(Cc2ccc3ncc(Cl)cc3c2)c1 [Example 166, N-((6-amino-4-methoxy-2-methylpyridin-3-yl)methyl)-2-((3-chloroquinolin-6-yl)methyl)isonicotinamide]
7 | 100 to 1000 nM | NCc1ccc(CNC(=O)c2ccnc(Cc3ccc4ncc(Cl)cc4c3)c2)cc1 [Example 168, N-(4-(aminomethyl)benzyl)-2-((3-chloroquinolin-6-yl)methyl)isonicotinamide]
8 | > 10000 nM | NCc1ccc(CNC(=O)c2ccnc(Cc3ccc4ncc(Cl)cc4c3)c2)cn1 [Example 169, N-((6-(aminomethyl)pyridin-3-yl)methyl)-2-((3-chloroquinolin-6-yl)methyl)isonicotinamide]
9 | > 10000 nM | NCc1ccc(CNC(=O)c2ccnc(Cc3ccc4ncc(Cl)cc4c3)c2)nc1 [Example 170, N-((5-(aminomethyl)pyridin-2-yl)methyl)-2-((3-chloroquinolin-6-yl)methyl)isonicotinamide]
10 | > 10000 nM | Cc1cc(C(C)(C)O)nc(C)c1CNC(=O)c1ccnc(Cc2ccc3ncc(C(F)(F)F)cc3c2)c1 [Example 174, N-((6-(2-hydroxypropan-2-yl)-2,4-dimethylpyridin-3-yl)methyl)-2-((3-(trifluoromethyl)quinolin-6-yl)methyl)isonicotinamide]
11 | < 100 nM | Cc1nc2c(c(C)c1CNC(=O)c1ccnc(Cc3ccc4ncc(Cl)cc4c3)c1)CCN2 [Example 175, 2-((3-chloroquinolin-6-yl)methyl)-N-((4,6-dimethyl-2,3-dihydro-1H-pyrrolo[2,3-b]pyridin-5-yl)methyl)isonicotinamide]
12 | 100 to 1000 nM | Nc1ncc2cc(CNC(=O)c3ccnc(Cc4ccc5ncc(Cl)cc5c4)c3)ccn12 [Example 187, N-((3-aminoimidazo[1,5-a]pyridin-7-yl)methyl)-2-((3-chloroquinolin-6-yl)methyl)isonicotinamide]
13 | 100 to 1000 nM | Cc1c(CNC(=O)c2ccnc(Cc3ccc4ncc(Cl)cc4c3)c2)cnc2[nH]cc(Cl)c12 [Example 189, N-((3-chloro-4-methyl-1H-pyrrolo[2,3-b]pyridin-5-yl)methyl)-2-((3-chloroquinolin-6-yl)methyl)isonicotinamide]
14 | 100 to 1000 nM | Cc1cc2[nH]cc(Cl)c2cc1CNC(=O)c1ccnc(Cc2ccc3ncc(Cl)cc3c2)c1 [Example 190, N-((3-chloro-6-methyl-1H-indol-5-yl)methyl)-2-((3-chloroquinolin-6-yl)methyl)isonicotinamide]
15 | < 100 nM | Cc1nc2[nH]cc(Cl)c2cc1CNC(=O)c1ccnc(Cc2ccc3ncc(Cl)cc3c2)c1 [Example 191, N-((3-chloro-6-methyl-1H-pyrrolo[2,3-b]pyridin-5-yl)methyl)-2-((3-chloroquinolin-6-yl)methyl)isonicotinamide]
16 | < 100 nM | Cc1nc2c(c(C)c1CNC(=O)c1ccnc(Cc3ccc4ncc(Cl)cc4c3)c1)CCCN2 [Example 195, 2-((3-chloroquinolin-6-yl)methyl)-N-((2,4-dimethyl-5,6,7,8-tetrahydro-1,8-naphthyridin-3-yl)methyl)isonicotinamide]
17 | < 100 nM | Cc1cc(N)nc(C)c1CNC(=O)c1cc(Cc2ccc3ncc(Cl)cc3c2)nc(-c2n[nH]c(=O)[nH]2)c1 [Example 196, N-((6-amino-2,4-dimethylpyridin-3-yl)methyl)-2-((3-chloroquinolin-6-yl)methyl)-6-(5-oxo-4,5-dihydro-1H-1,2,4-triazol-3-yl)isonicotinamide]

The next lines start with the molecule.

Row | Structure (SMILES) | IC50
18 | Cc1cc(N)nc(C)c1CNC(=O)c1ccnc(Cc2cnc3[nH]c(Cl)cc3c2)c1 [Example 150, N-((6-amino-2,4-dimethylpyridin-3-yl)methyl)-2-((2-chloro-1H-pyrrolo[2,3-b]pyridin-5-yl)methyl)isonicotinamide] | 100 to 1000 nM
19 | O=C(NCc1nnc2ccc(Cl)cn12)c1ccnc(Cc2ccc3ncc(Cl)cc3c2)c1 [Example 154, N-((6-chloro-[1,2,4]triazolo[4,3-a]pyridin-3-yl)methyl)-2-((3-chloroquinolin-6-yl)methyl)isonicotinamide] | 100 to 1000 nM
20 | Cc1ccn2nnc(CNC(=O)c3ccnc(Cc4ccc5ncc(Cl)cc5c4)c3)c2c1 [Example 155, 2-((3-chloroquinolin-6-yl)methyl)-N-((5-methyl-[1,2,3]triazolo[1,5-a]pyridin-3-yl)methyl)isonicotinamide] | 100 to 1000 nM
21 | O=C(NCc1cnc2ccc(Cl)cn12)c1ccnc(Cc2ccc3ncc(Cl)cc3c2)c1 [Example 157, N-((6-chloroimidazo[1,2-a]pyridin-3-yl)methyl)-2-((3-chloroquinolin-6-yl)methyl)isonicotinamide] | > 10000 nM
22 | Cc1ccn2c(C)nc(CNC(=O)c3ccnc(Cc4ccc5ncc(Cl)cc5c4)c3)c2c1 [Example 158, 2-((3-chloroquinolin-6-yl)methyl)-N-((3,7-dimethylimidazo[1,5-a]pyridin-1-yl)methyl)isonicotinamide] | 100 to 1000 nM
23 | Cc1ccn2c(C(F)(F)F)nc(CNC(=O)c3ccnc(Cc4ccc5ncc(Cl)cc5c4)c3)c2c1 [Example 160, 2-((3-chloroquinolin-6-yl)methyl)-N-((7-methyl-3-(trifluoromethyl)imidazo[1,5-a]pyridin-1-yl)methyl)isonicotinamide] | > 10000 nM
24 | Cc1nc2c(cc1CNC(=O)c1ccnc(Cc3ccc4ncc(C(F)(F)F)cc4c3)c1)CCN2 [Example 162, N-((6-methyl-2,3-dihydro-1H-pyrrolo[2,3-b]pyridin-5-yl)methyl)-2-((3-(trifluoromethyl)quinolin-6-yl)methyl)isonicotinamide] | 100 to 1000 nM
25 | Cc1nc(N)cc(C(F)(F)F)c1CNC(=O)c1ccnc(Cc2ccc3ncc(Cl)cc3c2)c1 [Example 165, N-((6-amino-2-methyl-4-(trifluoromethyl)pyridin-3-yl)methyl)-2-((3-chloroquinolin-6-yl)methyl)isonicotinamide] | 100 to 1000 nM
26 | Cc1nc(N)cc(C#N)c1CNC(=O)c1ccnc(Cc2ccc3ncc(Cl)cc3c2)c1 [Example 167, N-((6-amino-4-cyano-2-methylpyridin-3-yl)methyl)-2-((3-chloroquinolin-6-yl)methyl)isonicotinamide] | > 10000 nM
27 | Cc1cc(C(C)N)nc(C)c1CNC(=O)c1ccnc(Cc2ccc3ncc(Cl)cc3c2)c1 (centres unmarked) [Example 173, N-((6-(1-aminoethyl)-2,4-dimethylpyridin-3-yl)methyl)-2-((3-chloroquinolin-6-yl)methyl)isonicotinamide] | 1000 to 10000 nM
28 | O=C(NCc1ccc2cnc(C(F)(F)F)n2c1)c1ccnc(Cc2ccc3ncc(Cl)cc3c2)c1 [Example 185, 2-((3-chloroquinolin-6-yl)methyl)-N-((3-(trifluoromethyl)imidazo[1,5-a]pyridin-6-yl)methyl)isonicotinamide] | > 10000 nM
29 | Cc1cc2cncn2cc1CNC(=O)c1ccnc(Cc2ccc3ncc(Cl)cc3c2)c1 [Example 188, 2-((3-chloroquinolin-6-yl)methyl)-N-((7-methylimidazo[1,5-a]pyridin-6-yl)methyl)isonicotinamide] | > 10000 nM
30 | Cc1nc2[nH]cc(Cl)c2c(C)c1CNC(=O)c1ccnc(Cc2ccc3ncc(Cl)cc3c2)c1 [Example 192, N-((3-chloro-4,6-dimethyl-1H-pyrrolo[2,3-b]pyridin-5-yl)methyl)-2-((3-chloroquinolin-6-yl)methyl)isonicotinamide] | 100 to 1000 nM
31 | CC(=O)Nc1cc(C)c(CNC(=O)c2ccnc(Cc3ccc4ncc(Cl)cc4c3)c2)c(C)n1 [Example 193, N-((6-acetamido-2,4-dimethylpyridin-3-yl)methyl)-2-((3-chloroquinolin-6-yl)methyl)isonicotinamide] | 1000 to 10000 nM
32 | Cc1cc(C)c(CNC(=O)c2ccnc(Cc3ccc4ncc(Cl)cc4c3)c2)c(C)n1 [Example 194, 2-((3-chloroquinolin-6-yl)methyl)-N-((2,4,6-trimethylpyridin-3-yl)methyl)isonicotinamide] | 1000 to 10000 nM
